The term IC50 denotes the point on the concentration scale where inhibition reaches its midpoint.

The subject of the test is human monocytic cell line U937. The experiment in a line: Human U937 cellular necroptosis assay. The class given is cell-based. Particulars: U-937; U937 cells stimulated with 25 ng/mL human TNFalpha and 25 μM z-VAD-FMK; 22 hr; viability by Cell Titer-Glo 2.0; read-out: hU937 IC50. The gist of the method: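 U937 cells (5000/well) driven to necroptosis by 25 ng/mL human TNFalpha plus 25 μM z-VAD-FMK alongside 1:3-diluted compounds, 22 hr at 37° C, 5% CO2. Viability by CellTiter-Glo luminescence; IC50 from four-parameter logistic fit.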
(In ATP-based viability assays light output follows the ATP content of the culture.)
With `CN1C(=O)[C@@H](NC(=O)c2ncc(Cl)c(-c3ccc(F)cc3F)n2)COc2ccc(OCC(CO)CCl)cc21` (stereo partly drawn) [Example 147, 5-chloro-N-((3S)-7-(3-chloro-2-(hydroxymethyl)propoxy)-5-methyl-4-oxo-2,3,4,5-tetrahydrobenzo[b]-[1,4]oxazepin-3-yl)-4-(2,4-difluorophenyl)pyrimidine-2-carboxamide], the IC50 came to 20.9 nM.
Under `CN1C(=O)[C@@H](NC(=O)c2ncc(Cl)c(-c3ccc(F)cc3F)n2)COc2ccc(Oc3ccn(C)n3)cc21` [Example 148, (S)-5-chloro-4-(2,4-difluorophenyl)-N-(5-methyl-7-((1-methyl-1H-pyrazol-3-yl)oxy)-4-oxo-2,3,4,5-tetrahydrobenzo[b]-[1,4]oxazepin-3-yl)pyrimidine-2-carboxamide] stands 8.58 nM; under `CN1C(=O)[C@@H](NC(=O)c2ncc(Cl)c(-c3ccc(F)cc3F)n2)COc2ccc(-c3ccnn3C)cc21` [Example 149, (S)-5-chloro-4-(2,4-difluorophenyl)-N-(5-methyl-7-(1-methyl-1H-pyrazol-5-yl)-4-oxo-2,3,4,5-tetrahydrobenzo[b]-[1,4]oxazepin-3-yl)pyrimidine-2-carboxamide], 19.8 nM.
As for `CN1C(=O)[C@@H](NC(=O)c2ncc(Cl)c(-c3ccc(F)cc3F)n2)COc2ccc(-c3cnn(C)c3)cc21` [Example 150, (S)-5-chloro-4-(2,4-difluorophenyl)-N-(5-methyl-7-(1-methyl-1H-pyrazol-4-yl)-4-oxo-2,3,4,5-tetrahydrobenzo[b]-[1,4]oxazepin-3-yl)pyrimidine-2-carboxamide], the IC50 amounted to 14.2 nM.
Turning to `CN1C(=O)[C@@H](NC(=O)c2ncc(Cl)c(-c3ccc(F)cc3F)n2)COc2ccc(-c3cn[nH]c3)cc21` [Example 151], the IC50 amounted to 13 nM.
On to `Cc1cnn(-c2ccc3c(c2)N(C)C(=O)[C@@H](NC(=O)c2ncc(Cl)c(-c4ccc(F)cc4F)n2)CO3)c1` [Example 152, (S)-5-chloro-4-(2,4-difluorophenyl)-N-(5-methyl-7-(4-methyl-1H-pyrazol-1-yl)-4-oxo-2,3,4,5-tetrahydrobenzo[b]-[1,4]oxazepin-3-yl)pyrimidine-2-carboxamide], for which the IC50 turned out to be 29.2 nM.
Under `Cc1ccc(-c2nc(C(=O)N[C@H]3COc4ccc(CN5CCn6ncnc6C5)cc4N(C)C3=O)ncc2Cl)cc1F` [Example 153, (S)-5-chloro-N-(7-((5,6-dihydro-[1,2,4]triazolo[1,5-a]pyrazin-7(8H)-yl)methyl)-5-methyl-4-oxo-2,3,4,5-tetrahydrobenzo[b]-[1,4]oxazepin-3-yl)-4-(3-fluoro-4-methylphenyl)pyrimidine-2-carboxamide] stands 10 nM; under `CN1C(=O)[C@@H](NC(=O)c2ncc(Cl)c(-c3ccc(F)cc3F)n2)COc2cc(CN3CCn4ncnc4C3)ccc21` [Example 154, (S)-5-chloro-4-(2,4-difluorophenyl)-N-(8-((5,6-dihydro-[1,2,4]triazolo[1,5-a]pyrazin-7(8H)-yl)methyl)-5-methyl-4-oxo-2,3,4,5-tetrahydrobenzo[b]-[1,4]oxazepin-3-yl)pyrimidine-2-carboxamide], 32.1 nM; under `CN1C(=O)[C@@H](NC(=O)c2ncc(Cl)c(-c3cc(F)ccc3F)n2)COc2cc(CN3CCn4ncnc4C3)ccc21` [Example 155, (S)-5-chloro-4-(2,5-difluorophenyl)-N-(8-((5,6-dihydro-[1,2,4]triazolo[1,5-a]pyrazin-7(8H)-yl)methyl)-5-methyl-4-oxo-2,3,4,5-tetrahydrobenzo[b]-[1,4]oxazepin-3-yl)pyrimidine-2-carboxamide], 24.8 nM.
Under `Cc1cnc(C(=O)N[C@H]2COc3ccc(CN4CCn5ncnc5C4)cc3N(C)C2=O)nc1-c1ccccc1F` [Example 156, (S)-N-(7-((5,6-dihydro-[1,2,4]triazolo[1,5-a]pyrazin-7(8H)-yl)methyl)-5-methyl-4-oxo-2,3,4,5-tetrahydrobenzo[b]-[1,4]oxazepin-3-yl)-4-(2-fluorophenyl)-5-methylpyrimidine-2-carboxamide] stands 17.1 nM.
For `Cc1cnc(C(=O)N[C@H]2COc3cc(Cl)cnc3N(C)C2=O)nc1-c1cc(C(F)(F)F)cs1` [Example 157, (S)-N-(8-chloro-5-methyl-4-oxo-2,3,4,5-tetrahydro-pyrido[3,2-b][1,4]oxazepin-3-yl)-5-methyl-4-(4-(trifluoromethyl)thiophen-2-yl)-pyrimidine-2-carboxamide] the value was 423 nM; for `Cc1cnc(C(=O)N[C@H]2COc3cc(Cl)cnc3N(C)C2=O)nc1C1CCC(F)(F)CO1` (stereo partly drawn) [Example 158, N-((S)-8-chloro-5-methyl-4-oxo-2,3,4,5-tetrahydro-pyrido[3,2-b][1,4]oxazepin-3-yl)-4-(5,5-difluorotetrahydro-2H-pyran-2-yl)-5-methylpyrimidine-2-carboxamide], 149 nM; for `Cc1cnc(C(=O)N[C@H]2COc3ccc(Oc4cnn(C)c4)cc3N(C)C2=O)nc1-c1ccccc1F` [Example 159, (S)-4-(2-fluorophenyl)-5-methyl-N-(5-methyl-7-((1-methyl-1H-pyrazol-4-yl)oxy)-4-oxo-2,3,4,5-tetrahydrobenzo[b]-[1,4]oxazepin-3-yl)pyrimidine-2-carboxamide], 9 nM.
Consider `Cc1cnc(C(=O)N[C@H]2COc3ccc(Oc4cnn(C)c4)cc3N(C)C2=O)nc1-c1ccc(C#N)cc1` [Example 160, (S)-4-(4-cyanophenyl)-5-methyl-N-(5-methyl-7-((1-methyl-1H-pyrazol-4-yl)oxy)-4-oxo-2,3,4,5-tetrahydrobenzo[b]-[1,4]oxazepin-3-yl)pyrimidine-2-carboxamide], for which the IC50 turned out to be 24 nM.
For `CN1C(=O)[C@@H](NC(=O)c2ncc(Cl)c(-c3cc(F)ccc3F)n2)COc2ccc(Oc3cnn(C)c3)cc21` [Example 161, (S)-5-chloro-4-(2,5-difluorophenyl)-N-(5-methyl-7-((1-methyl-1H-pyrazol-4-yl)oxy)-4-oxo-2,3,4,5-tetrahydrobenzo[b]-[1,4]oxazepin-3-yl)pyrimidine-2-carboxamide] the value was 9 nM; for `CN1C(=O)[C@@H](NC(=O)c2ncc(CN)c(-c3ccccc3)n2)COc2cc(Cl)cnc21` [Example 162, (S)-5-(aminomethyl)-N-(8-chloro-5-methyl-4-oxo-2,3,4,5-tetrahydropyrido[3,2-b][1,4]oxazepin-3-yl)-4-phenylpyrimidine-2-carboxamide], 122 nM.
For `CN1C(=O)[C@@H](NC(=O)c2ncc(Cl)c([C@@H]3COCCO3)n2)COc2cc(Cl)cnc21` [Example 163a, 5-chloro-N—((S)-8-chloro-5-methyl-4-oxo-2,3,4,5-tetrahydropyrido[3,2-b][1,4]oxazepin-3-yl)-4-((R)-1,4-dioxan-2-yl)pyrimidine-2-carboxamide] the value was 172 nM; for `Cc1cnc(C(=O)N[C@H]2COc3cc(Cl)cnc3N(C)C2=O)nc1C1COCCO1` (stereo partly drawn) [Example 164, N—((S)-8-chloro-5-methyl-4-oxo-2,3,4,5-tetrahydropyrido[3,2-b][1,4]oxazepin-3-yl)-4-(1,4-dioxan-2-yl)-5-methylpyrimidine-2-carboxamide], 357 nM; for `CN1C(=O)[C@@H](NC(=O)c2ncc(Cl)c(-c3cc(F)c(CO)c(F)c3)n2)COc2cc(F)cnc21` [Example 166, (S)-5-chloro-4-(3,5-difluoro-4-(hydroxymethyl)phenyl)-N-(8-fluoro-5-methyl-4-oxo-2,3,4,5-tetrahydropyrido[3,2-b][1,4]oxazepin-3-yl)pyrimidine-2-carboxamide], 196 nM.
For `O=C(N[C@H]1COc2cc(F)cnc2NC1=O)c1ncc(Cl)c(-c2ccc(F)cc2F)n1` [Example 167, (S)-5-chloro-4-(2,4-difluorophenyl)-N-(8-fluoro-4-oxo-2,3,4,5-tetrahydropyrido[3,2-b][1,4]oxazepin-3-yl)pyrimidine-2-carboxamide] the value was 464 nM; for `[2H]C([2H])([2H])N1C(=O)[C@@H](NC(=O)c2ncc(Cl)c(-c3cccc(F)c3F)n2)COc2cc(F)cnc21` [Example 168, (S)-5-chloro-4-(2,3-difluorophenyl)-N-(8-fluoro-5-(methyl-d3)-4-oxo-2,3,4,5-tetrahydropyrido[3,2-b][1,4]oxazepin-3-yl)pyrimidine-2-carboxamide], 45.2 nM; for `[2H]C([2H])([2H])c1cnc(C(=O)N[C@H]2COc3cc(F)cnc3N(C([2H])([2H])[2H])C2=O)nc1-c1ccccc1F` [Example 169, (S)—N-(8-fluoro-5-(methyl-d3)-4-oxo-2,3,4,5-tetrahydropyrido[3,2-b][1,4]oxazepin-3-yl)-4-(2-fluorophenyl)-5-(methyl-d3)pyrimidine-2-carboxamide], 20.9 nM.
Consider `[2H]C([2H])([2H])N1C(=O)[C@@H](NC(=O)c2ncc(C)c(-c3ccccc3F)n2)COc2cc(F)cnc21` [Example 170, (S)—N-(8-fluoro-5-(methyl-d3)-4-oxo-2,3,4,5-tetrahydropyrido[3,2-b][1,4]oxazepin-3-yl)-4-(2-fluorophenyl)-5-methylpyrimidine-2-carboxamide], for which the IC50 came to 15.8 nM.
For `Cc1cnc(C(=O)N[C@H]2COc3ccc(S(C)(=O)=O)cc3N(C)C2=O)nc1-c1ccccc1F` [Example 171, (S)-4-(2-fluorophenyl)-5-methyl-N-(5-methyl-7-(methylsulfonyl)-4-oxo-2,3,4,5-tetrahydrobenzo[b][1,4]oxazepin-3-yl)pyrimidine-2-carboxamide] the value was 120 nM.
Under `Cc1cnc(C(=O)N[C@H]2COc3cc(Cl)cnc3N(C)C2=O)nc1C1CC(F)(F)CCN1` (stereo partly drawn) [Example 172, N—((S)-8-chloro-5-methyl-4-oxo-2,3,4,5-tetrahydropyrido[3,2-b][1,4]oxazepin-3-yl)-4-(4,4-difluoropiperidin-2-yl)-5-methylpyrimidine-2-carboxamide] stands 175 nM.

For the origin of these results see patent US12565490B2, “Inhibitors of Receptor Interacting Protein Kinase I for the treatment of disease” (Board of Regents, The University of Texas System, priority 2020, dated 2026).
